Experimental data: patent US10188615B2, “Alkoxy compounds for disease treatment” (Acucela Inc., priority 2007, dated 2019)

biological target: recombinant human RPE65 and LRAT (Homo sapiens (Human), UniProt Q16518); test: Human in vitro isomerase inhibition assay; format: biochemical; settings: Human in vitro Inhibition data; inhibition of 11-cis-retinol formation; HEK293 homogenate, all-trans-retinol about 20 μM, 37° C., one hour; given as ranges
Description: The concentration dependent effect of the compounds disclosed herein on the retinol isomerization reaction was also evaluated with a recombinant human enzyme system. […] A homogenate of HEK293 cell clone expressing recombinant human RPE65 and LRAT were the source of the visual enzymes, and exogenous all-trans-retinol (about 20 μM) was used as the substrate. Recombinant human CRALBP (about 80 ug/mL) was added to enhance the formation of 11 cis-retinal. The 200 μL Bis-Tris Phosphate buffer (10 mM, pH 7.2) based reaction mixture also contains 0.5% BSA, and 1 mM NaPPi. In this assay, the reaction was carried out at 37° C. in duplicates for one hour and was terminated by addition of 300 μL methanol. The amount of reaction product, 11-cis-retinol, was measured by HPLC analysis following Heptane extraction of the reaction mixture. […] The ability of the numerous compounds disclosed herein to inhibit isomerization reaction is quantified and the respective IC50 value is determined.

Sequence of recombinant human RPE65 and LRAT (Q16518 2-533): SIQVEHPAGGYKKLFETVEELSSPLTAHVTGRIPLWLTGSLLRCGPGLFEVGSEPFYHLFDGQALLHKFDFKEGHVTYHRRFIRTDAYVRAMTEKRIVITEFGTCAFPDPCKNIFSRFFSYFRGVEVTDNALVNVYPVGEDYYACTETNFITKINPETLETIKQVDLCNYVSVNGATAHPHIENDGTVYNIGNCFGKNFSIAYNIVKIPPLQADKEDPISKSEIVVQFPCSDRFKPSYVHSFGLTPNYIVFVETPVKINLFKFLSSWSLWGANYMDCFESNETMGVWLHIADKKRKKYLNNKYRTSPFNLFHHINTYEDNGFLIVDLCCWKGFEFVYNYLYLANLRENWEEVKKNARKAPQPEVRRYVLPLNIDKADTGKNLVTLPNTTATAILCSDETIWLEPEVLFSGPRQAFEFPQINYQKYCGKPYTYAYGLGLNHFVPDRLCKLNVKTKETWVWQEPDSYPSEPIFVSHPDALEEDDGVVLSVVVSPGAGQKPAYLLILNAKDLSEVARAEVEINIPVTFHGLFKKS

IC50 [nM]	IC50 (μM)	SMILES
≤ 10	–	NCCC(O)c1cccc(OCC2CCC2)c1 (centres unmarked) [Example 34, 3-Amino-1-(3-(cyclobutylmethoxy)phenyl)propan-1-ol]
–	No detectable	NCCCc1cccc(OCc2ccc(Cl)cc2)c1 [Example 120, 3-(3-(4-Chlorobenzyloxy)phenyl)propan-1-amine]
≤ 10	–	NCCC(O)c1cccc(OCC2CCCC2)c1 (centres unmarked) [Example 35, 3-Amino-1-(3-(Cyclopentylmethoxy)Phenyl)Propan-1-Ol]
≤ 10	–	C[C@H](CN)[C@@H](O)c1cccc(OCC2CCCC2)c1 [Example 56, (1R,2R)-3-Amino-1-(3-(cyclopentylmethoxy)phenyl)-2-methylpropan-1-ol]
≤ 10	–	NCC[C@@H](O)c1cccc(OC[C@@H]2CCCC[C@H]2O)c1 [Example 175, (1,2-trans)-2-((3-((R)-3-Amino-1-hydroxypropyl)phenoxy)methyl)cyclohexanol]
≤ 10	–	CCCCCOc1cccc(C(O)CCN)c1 (centres unmarked) [Example 87, 3-Amino-1-(3-(pentyloxy)phenyl)propan-1-ol]
–	No detectable	COc1ccc(COc2cccc(CCCN)c2)cc1 [Example 121, 3-(3-(4-Methoxybenzyloxy)phenyl)propan-1-amine]
≤ 10	–	NCCC(O)c1cccc(OCC2CCC(F)(F)CC2)c1 (centres unmarked) [Example 169, 3-Amino-1-(3-((4,4-difluorocyclohexyl)methoxy)phenyl)propan-1-ol]
≤ 10	–	NCC[C@@H](O)c1cccc(OC[C@H]2CC[C@H](O)CC2)c1 [Example 172, (1,4-Trans)-4-((3-((R)-3-Amino-1-Hydroxypropyl)Phenoxy)Methyl)Cyclohexanol]
> 10000	–	COC(=O)c1cc(CCCN)cc(OCC2CCCCC2)c1 [Example 170, Methyl 3-(3-aminopropyl)-5-(cyclohexylmethoxy)benzoate]
> 10000	–	CN(C)CCC(=O)c1cccc(OCC2CCCCC2)c1 [Example 182, 1-(3-(Cyclohexylmethoxy)phenyl)-3-(dimethylamino)propan-1-one]
≤ 10	–	NCC[C@@H](O)c1cccc(OC[C@H]2CCCC[C@H]2O)c1 [Example 176, (1,2-cis)-2-((3-((R)-3-Amino-1-hydroxypropyl)phenoxy)methyl)cyclohexanol]
–	No detectable	Cc1ccc(COc2cccc(CCCN)c2)cc1 [Example 119, 3-(3-(4-Methylbenzyloxy)phenyl)propan-1-amine]
–	No detectable	NCCOc1cccc(OCCO)c1 [Example 141, 2-(3-(2-Aminoethoxy)phenoxy)ethanol]
≤ 10	–	NCC[C@@H](O)c1cccc(OC[C@H]2CC[C@@H](O)CC2)c1 [Example 171, (1,4-Cis)-4-((3-((R)-3-Amino-1-Hydroxypropyl)Phenoxy)Methyl)Cyclohexanol]

biological target: isomerase (Mus musculus (Mouse), UniProt Q91ZQ5); test: In vivo murine isomerase assay (recovery of 11-cis-retinal after photobleaching); design: species or system mice; settings: read-out: % Inhibition 1 mg/kg, 4 h
Description: The capability of compounds described herein to inhibit isomerase was determined by an in vivo murine isomerase assay. Brief exposure of the eye to intense light (“photobleaching” of the visual pigment or simply “bleaching”) is known to photo-isomerize almost all 11-cis-retinal in the retina. The recovery of 11-cis-retinal after bleaching can be used to estimate the activity of isomerase in vivo. Delayed recovery, as represented by lower 11-cis-retinal oxime levels, indicates inhibition of isomerization reaction.
The mice were allowed to recover 2 hours in the dark. The animals were then sacrificed by carbon dioxide inhalation. Retinoids were extracted from the eye and the regeneration of 11-cis-retinal was assessed at various time intervals.
After the mice were sacrificed, the eyes were immediately removed and placed in liquid nitrogen for storage.
The eyes were placed in 500 μL of bis-tris propane buffer (10 mM, pH ˜7.3) and 20 µL of 0.8M hydroxile amine (pH-7.3). The eyes were cut up into small pieces with small iris scissors and then thoroughly homogenized at 30000 rpm with a mechanical homogenizer (Polytron PT 1300 D) in the tube until no visible tissue remained. 500 μL of methanol and 500 μL of heptane were added to each tube. The tubes were attached to a vortexer so that the contents were mixed thoroughly for 15 minutes in room temperature. The organic phase was separated from the aqueous phase by centrifugation for 10 min at 13K rpm, 4° C. 240 μL of the solution from the top layer (organic phase) was removed and transferred to clean 300 μl glass inserts in HPLC vials using glass pipette and the vials were crimped shut tightly.
Loading volume for each sample is 100 μl; detection wavelength is 360 nm. The area under the curve for 11-cis retinal oxime was calculated by Agilent Chemstation software and was recorded manually. Data processing was performed using Prizm software.
Positive control mice (no compound administered) were sacrificed fully dark-adapted and the eye retinoids analyzed. Light (bleached) control mice (no compound administered) were sacrificed and retinoids isolated and analyzed immediately after light treatment.
Mice were sacrificed 2 hours after bleaching, eyes were enucleated, and retinoid content was analyzed by HPLC.
Recovery control mice (vehicle-only treated) were light-treated and left to recover for 2 hours in the dark before sacrifice and analysis. Light control mice (vehicle only treated) were sacrificed for analysis immediately after photo-bleaching.

Sequence of isomerase (Q91ZQ5 whole entry): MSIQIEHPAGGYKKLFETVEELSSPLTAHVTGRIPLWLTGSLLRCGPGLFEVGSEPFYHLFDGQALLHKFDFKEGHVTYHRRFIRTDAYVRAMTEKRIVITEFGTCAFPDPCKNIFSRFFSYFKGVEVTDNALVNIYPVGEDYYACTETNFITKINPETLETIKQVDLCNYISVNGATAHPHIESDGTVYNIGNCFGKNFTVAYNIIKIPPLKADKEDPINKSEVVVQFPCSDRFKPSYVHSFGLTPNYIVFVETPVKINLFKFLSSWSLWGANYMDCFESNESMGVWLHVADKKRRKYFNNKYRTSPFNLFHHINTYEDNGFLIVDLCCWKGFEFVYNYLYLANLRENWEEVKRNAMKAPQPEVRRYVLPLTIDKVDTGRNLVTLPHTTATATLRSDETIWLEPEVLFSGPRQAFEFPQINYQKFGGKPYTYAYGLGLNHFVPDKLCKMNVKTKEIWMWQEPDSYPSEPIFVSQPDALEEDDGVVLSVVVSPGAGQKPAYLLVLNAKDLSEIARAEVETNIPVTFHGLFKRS

inhibition at 1 mg/kg [%]	SMILES
62	CC(C)CCOc1cccc(C(O)CCN)c1 (centres unmarked) [Example 107, 3-Amino-1-(3-(isopentyloxy)phenyl)propan-1-ol]
95	NCCC(O)c1cccc(OCC2CCCC2)c1 (centres unmarked) [Example 35, 3-Amino-1-(3-(Cyclopentylmethoxy)Phenyl)Propan-1-Ol]
4	NCCS(=O)(=O)c1cccc(OCC2CCCCC2)c1 [Example 125, 2-(3-(Cyclohexylmethoxy)phenylsulfonyl)ethanamine]
10	C[C@H](CN)[C@@H](O)c1cccc(OCC2CCCC2)c1 [Example 56, (1R,2R)-3-Amino-1-(3-(cyclopentylmethoxy)phenyl)-2-methylpropan-1-ol]
22	COCCOCCOCC(=O)NCCC(O)c1cccc(OCC2CCCCC2)c1 (centres unmarked) [Example 77, N-(3-(3-(Cyclohexylmethoxy)phenyl)-3-hydroxypropyl)-2-(2-(2-methoxyethoxy)ethoxy)acetamide]
3	N=C(N)CC(O)c1cccc(OCC2CCCCC2)c1 (centres unmarked) [Example 130, 3-(3-(Cyclohexylmethoxy)phenyl)-3-hydroxypropanimidamide]
6	NCCOc1cccc(OCCc2ccccc2)c1 [Example 47, 2-(3-Phenethoxyphenoxy)ethanamine]
23	C[C@@H](CN)[C@H](O)c1cccc(OCC2CCCCC2)c1 [Example 73, (1S,2S)-3-Amino-1-(3-(Cyclohexylmethoxy)Phenyl)-2-Methylpropan-1-Ol]
